target: GST-Bc1-2 (Homo sapiens, UniProt P10415); assay: Time Resolved-Fluorescence Resonance Energy Transfer (TR-FRET) Bcl-2 binding assay with F-Bak peptide probe; conditions: GST-Bcl-2 1 nM, F-Bak probe 100 nM, Tb-anti-GST 1 nM; '<' = below limit of detection; read-out: TR-FRET Bcl-2 Binding Ki
Sequence (P10415 whole entry): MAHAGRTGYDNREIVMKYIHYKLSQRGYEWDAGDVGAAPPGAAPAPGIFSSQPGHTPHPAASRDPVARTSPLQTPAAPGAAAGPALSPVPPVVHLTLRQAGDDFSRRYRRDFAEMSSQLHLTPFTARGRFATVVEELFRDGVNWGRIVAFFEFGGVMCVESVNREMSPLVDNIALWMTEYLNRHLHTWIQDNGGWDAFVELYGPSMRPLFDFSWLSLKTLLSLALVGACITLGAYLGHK
Method: The samples are then mixed on a shaker for 1 minute and incubated for an additional 3 hours at room temperature. For each assay, the probe/antibody and protein/probe/antibody were included on each assay plate as negative and positive controls, respectively.
The samples were then mixed on a shaker for 1 minute and incubated for an additional 3 hours at room temperature. For each assay, the probe/antibody and protein/probe/antibody were included on each assay plate as negative and positive controls, respectively.

Going from `CC1(C)CCC(CN2CCN(c3ccc(C(=O)NS(=O)(=O)c4ccc(N[C@H]5CC[C@@H](N6CCOCC6)C5)c([N+](=O)[O-])c4)c(Oc4cnc5[nH]ccc5c4)c3)CC2)=C(c2ccc(Cl)cc2)C1` [Example 111, 4-(4-{[2-(4-chlorophenyl)-4,4-dimethylcyclohex-1-en-1-yl]methyl}piperazin-1-yl)-N-[(4-{[(1S,3R)-3-morpholin-4-ylcyclopentyl]amino}-3-nitrophenyl)sulfonyl]-2-(1H-pyrrolo[2,3-b]pyridin-5-yloxy)benzamide] to `CC1(C)CCC(CN2CCN(c3ccc(C(=O)NS(=O)(=O)c4ccc(N[C@H]5CC[C@@H](N6CCOCC6)CC5)c([N+](=O)[O-])c4)c(Oc4cnc5[nH]ccc5c4)c3)CC2)=C(c2ccc(Cl)cc2)C1` [Example 39, Cis-4-(4-{[2-(4-chlorophenyl)-4,4-dimethylcyclohex-1-en-1-yl]methyl}piperazin-1-yl)-N-({4-[(4-morpholin-4-ylcyclohexyl)amino]-3-nitrophenyl}sulfonyl)-2-(1H-pyrrolo[2,3-b]pyridin-5-yloxy)benzamide], the Ki rises from less than 0.01 nM to 0.012 nM. The first binds more tightly here.

Going from `CC1(C)CCC(CN2CCN(c3ccc(C(=O)NS(=O)(=O)c4ccc(NCC5CCOCC5)c(S(=O)(=O)C(F)(F)F)c4)c(Oc4cnc5[nH]ccc5c4)c3)CC2)=C(c2ccc(Cl)cc2)C1` [Example 17, 4-(4-{[2-(4-chlorophenyl)-4,4-dimethylcyclohex-1-en-1-yl]methyl}piperazin-1-yl)-2-(1H-pyrrolo[2,3-b]pyridin-5-yloxy)-N-({4-[(tetrahydro-2H-pyran-4-ylmethyl)amino]-3-[(trifluoromethyl)sulfonyl]phenyl}sulfonyl)benzamide] to `CC1(C)CCC(CN2CCN(c3ccc(C(=O)NS(=O)(=O)c4ccc(NCC5CCOCC5)c(S(F)(F)(F)(F)F)c4)c(Oc4cnc5[nH]ccc5c4)c3)CC2)=C(c2ccc(Cl)cc2)C1` [Example 233, 4-(4-{[2-(4-chlorophenyl)-4,4-dimethylcyclohex-1-en-1-yl]methyl}piperazin-1-yl)-N-({3-(pentafluoro-lambda˜6˜-sulfanyl)-4-[(tetrahydro-2H-pyran-4-ylmethyl)amino]phenyl}sulfonyl)-2-(1H-pyrrolo[2,3-b]pyridin-5-yloxy)benzamide], the Ki rises from 0.09 nM to 1.65 nM (18-fold). The first binds more tightly here.

`CC1(C)CCC(CN2CCN(c3ccc(C(=O)NS(=O)(=O)c4ccc(OCC5CCOC(C)(C)C5)c([N+](=O)[O-])c4)c(Oc4cnc5[nH]ccc5c4)c3)CC2)=C(c2ccc(Cl)cc2)C1` (stereo not shown) [Example 51, 4-(4-{[2-(4-chlorophenyl)-4,4-dimethylcyclohex-1-en-1-yl]methyl}piperazin-1-yl)-N-({4-[(2,2-dimethyltetrahydro-2H-pyran-4-yl)methoxy]-3-nitrophenyl}sulfonyl)-2-(1H-pyrrolo[2,3-b]pyridin-5-yloxy)benzamide] and `CC1(C)CCC(CN2CCN(c3ccc(C(=O)NS(=O)(=O)c4ccc(OCC5(F)CCOCC5)c([N+](=O)[O-])c4)c(Oc4cnc5[nH]ccc5c4)c3)CC2)=C(c2ccc(Cl)cc2)C1` [Example 37, 4-(4-{[2-(4-chlorophenyl)-4,4-dimethylcyclohex-1-en-1-yl]methyl}piperazin-1-yl)-N-({4-[(4-fluorotetrahydro-2H-pyran-4-yl)methoxy]-3-nitrophenyl}sulfonyl)-2-(1H-pyrrolo[2,3-b]pyridin-5-yloxy)benzamide] cannot be ordered by Ki: less than 0.01 nM for the first, less than 0.01 nM for the second.

Going from `CC1(C)CCC(CN2CCN(c3ccc(C(=O)NS(=O)(=O)c4cnc(OC[C@H]5CN(CC#N)CCO5)c(Cl)c4)c(Oc4cnc5[nH]ccc5c4)c3)CC2)=C(c2ccc(Cl)cc2)C1` [Example 246, N-[(5-chloro-6-{[(2R)-4-(cyanomethyl)morpholin-2-yl]methoxy}pyridin-3-yl)sulfonyl]-4-(4-{[2-(4-chlorophenyl)-4,4-dimethylcyclohex-1-en-1-yl]methyl}piperazin-1-yl)-2-(1H-pyrrolo[2,3-b]pyridin-5-yloxy)benzamide] to `CC1(C)CCC(CN2CCN(c3ccc(C(=O)NS(=O)(=O)c4ccc(NCC5CN(CC(=O)O)CCO5)c([N+](=O)[O-])c4)c(Oc4cnc5[nH]ccc5c4)c3)CC2)=C(c2ccc(Cl)cc2)C1` (stereo not shown) [Example 216, (2-{[(4-{[4-(4-{[2-(4-chlorophenyl)-4,4-dimethylcyclohex-1-en-1-yl]methyl}piperazin-1-yl)-2-(1H-pyrrolo[2,3-b]pyridin-5-yloxy)benzoyl]sulfamoyl}-2-nitrophenyl)amino]methyl}morpholin-4-yl)acetic acid], the Ki falls from 0.144 nM to less than 0.01 nM. The second binds more tightly here.

Compared with `CC1(C)CCC(CN2CCN(c3ccc(C(=O)NS(=O)(=O)c4ccc(NC5CN(C(CF)CF)C5)c([N+](=O)[O-])c4)c(Oc4cnc5[nH]ccc5c4)c3)CC2)=C(c2ccc(Cl)cc2)C1` [Example 151, 4-(4-{[2-(4-chlorophenyl)-4,4-dimethylcyclohex-1-en-1-yl]methyl}piperazin-1-yl)-N-{[4-({1-[2-fluoro-1-(fluoromethyl)ethyl]azetidin-3-yl}amino)-3-nitrophenyl]sulfonyl}-2-(1H-pyrrolo[2,3-b]pyridin-5-yloxy)benzamide], `CC1(C)CCC(CN2CCN(c3ccc(C(=O)NS(=O)(=O)c4ccc(NC5CCN(C6CC6)CC5)c([N+](=O)[O-])c4)c(Oc4cnc5[nH]ccc5c4)c3)CC2)=C(c2ccc(Cl)cc2)C1` [Example 98, 4-(4-{[2-(4-chlorophenyl)-4,4-dimethylcyclohex-1-en-1-yl]methyl}piperazin-1-yl)-N-({4-[(1-cyclopropylpiperidin-4-yl)amino]-3-nitrophenyl}sulfonyl)-2-(1H-pyrrolo[2,3-b]pyridin-5-yloxy)benzamide] is lower in Ki: 0.017 nM for the first, less than 0.01 nM for the second.

Compared with `CC1(C)CCC(CN2CCN(c3ccc(C(=O)NS(=O)(=O)c4ccc(OCC5(F)CCC(N(CCC#N)C6CC6)CC5)c([N+](=O)[O-])c4)c(Oc4cnc5[nH]ccc5c4)c3)CC2)=C(c2ccc(Cl)cc2)C1` (stereo not shown) [Example 363, 4-(4-{[2-(4-chlorophenyl)-4,4-dimethylcyclohex-1-en-1-yl]methyl}piperazin-1-yl)-N-{[4-({4-[(2-cyanoethyl)(cyclopropyl)amino]-1-fluorocyclohexyl}methoxy)-3-nitrophenyl]sulfonyl}-2-(1H-pyrrolo[2,3-b]pyridin-5-yloxy)benzamide], `CC1(C)CCC(CN2CCN(c3ccc(C(=O)NS(=O)(=O)c4ccc(OC[C@@H]5CN(C6COC6)C[C@H]5CF)c([N+](=O)[O-])c4)c(Oc4cnc5[nH]ccc5c4)c3)CC2)=C(c2ccc(Cl)cc2)C1` (relative stereo) [Example 137, 4-(4-{[2-(4-chlorophenyl)-4,4-dimethylcyclohex-1-en-1-yl]methyl}piperazin-1-yl)-N-[(4-{[trans-4-(fluoromethyl)-1-oxetan-3-ylpyrrolidin-3-yl]methoxy}-3-nitrophenyl)sulfonyl]-2-(1H-pyrrolo[2,3-b]pyridin-5-yloxy)benzamide] is lower in Ki: 0.017 nM for the first, less than 0.01 nM for the second. The second binds more tightly here.

Compared with `CC1(C)CCC(CC2CCN(c3ccc(C(=O)NS(=O)(=O)c4ccc(NCC5CCOCC5)c([N+](=O)[O-])c4)c(Oc4cnc5[nH]ccc5c4)c3)CC2)C(c2ccc(Cl)cc2)C1` (stereo not shown) [Example 296, 4-(4-{[2-(4-chlorophenyl)-4,4-dimethylcyclohexyl]methyl}piperidin-1-yl)-N-({3-nitro-4-[(tetrahydro-2H-pyran-4-ylmethyl)amino]phenyl}sulfonyl)-2-(1H-pyrrolo[2,3-b]pyridin-5-yloxy)benzamide], `COC1(C)CCC(c2ccc(Cl)cc2)=C(CN2CCN(c3ccc(C(=O)NS(=O)(=O)c4ccc(NCC5CCOCC5)c([N+](=O)[O-])c4)c(Oc4cnc5[nH]ccc5c4)c3)CC2)C1` (stereo not shown) [Example 378, 4-(4-{[2-(4-chlorophenyl)-5-methoxy-5-methylcyclohex-1-en-1-yl]methyl}piperazin-1-yl)-N-({3-nitro-4-[(tetrahydro-2H-pyran-4-ylmethyl)amino]phenyl}sulfonyl)-2-(1H-pyrrolo[2,3-b]pyridin-5-yloxy)benzamide] is lower in Ki: 0.512 nM for the first, less than 0.001 nM for the second.

`COC(=O)N1CCOC(CNc2ccc(S(=O)(=O)NC(=O)c3ccc(N4CCN(CC5=C(c6ccc(Cl)cc6)CC(C)(C)CC5)CC4)cc3Oc3cnc4[nH]ccc4c3)cc2[N+](=O)[O-])C1` (stereo not shown) [Example 317, methyl 2-{[(4-{[4-(4-{[2-(4-chlorophenyl)-4,4-dimethylcyclohex-1-en-1-yl]methyl}piperazin-1-yl)-2-(1H-pyrrolo[2,3-b]pyridin-5-yloxy)benzoyl]sulfamoyl}-2-nitrophenyl)amino]methyl}morpholine-4-carboxylate] and `CC1(C)CCC(CN2CCN(c3ccc(C(=O)NS(=O)(=O)c4ccc(N[C@H]5CC[C@H](N(C6CC6)C6CC6)CC5)c([N+](=O)[O-])c4)c(Oc4cnc5[nH]ccc5c4)c3)CC2)=C(c2ccc(Cl)cc2)C1` [Example 100, Trans-4-(4-{[2-(4-chlorophenyl)-4,4-dimethylcyclohex-1-en-1-yl]methyl}piperazin-1-yl)-N-[(4-{[4-(dicyclopropylamino)cyclohexyl]amino}-3-nitrophenyl)sulfonyl]-2-(1H-pyrrolo[2,3-b]pyridin-5-yloxy)benzamide] cannot be ordered by Ki: less than 0.01 nM for the first, less than 0.01 nM for the second.

Going from `CC1(C)CCC(CN2CCN(c3ccc(C(=O)NS(=O)(=O)c4ccc(NC5CCN(C6CC6)CC5)c(S(=O)(=O)C(F)(F)F)c4)c(Oc4cnc5[nH]ccc5c4)c3)CC2)=C(c2ccc(Cl)cc2)C1` [Example 190, 4-(4-{[2-(4-chlorophenyl)-4,4-dimethylcyclohex-1-en-1-yl]methyl}piperazin-1-yl)-N-({4-[(1-cyclopropylpiperidin-4-yl)amino]-3-[(trifluoromethyl)sulfonyl]phenyl}sulfonyl)-2-(1H-pyrrolo[2,3-b]pyridin-5-yloxy)benzamide] to `CC1(C)CCC(CN2CCN(c3ccc(C(=O)NS(=O)(=O)c4cnc(OCC5(F)CCN(C(CF)CF)CC5)c(C(F)(F)F)c4)c(Oc4cnc5[nH]ccc5c4)c3)CC2)=C(c2ccc(Cl)cc2)C1` [Example 288, 4-(4-{[2-(4-chlorophenyl)-4,4-dimethylcyclohex-1-en-1-yl]methyl}piperazin-1-yl)-N-{[6-{[1-(1,3-difluoropropan-2-yl)-4-fluoropiperidin-4-yl]methoxy}-5-(trifluoromethyl)pyridin-3-yl]sulfonyl}-2-(1H-pyrrolo[2,3-b]pyridin-5-yloxy)benzamide], the Ki rises from 0.026 nM to 0.251 nM (9.7-fold).

same assay, conditions: Table 5, direct comparison Z=N vs Z=C analogs; read-out: Bcl-2 FRET ki

Work on `CC1(C)CCC(CN2CCN(c3ccc(C(=O)NS(=O)(=O)c4ccc(NCC5CCOCC5)c(S(=O)(=O)C(F)(F)F)c4)c(Oc4cnc5[nH]ccc5c4)c3)CC2)=C(c2ccc(Cl)cc2)C1` [Example 17, 4-(4-{[2-(4-chlorophenyl)-4,4-dimethylcyclohex-1-en-1-yl]methyl}piperazin-1-yl)-2-(1H-pyrrolo[2,3-b]pyridin-5-yloxy)-N-({4-[(tetrahydro-2H-pyran-4-ylmethyl)amino]-3-[(trifluoromethyl)sulfonyl]phenyl}sulfonyl)benzamide] yielded a Ki of 0.09 nM.

From US8580794B2 (AbbVie Inc., priority 2009, dated 2013)
